Values after ≈ are worked out from the molar mass of the structure shown. Values joined by “and” are separate entries in the source; they are usually repeats but may differ in a detail not shown here. Identical values can stand only once. Like-named read-outs stand apart in the source and are kept apart here.
Legend:
[1] = system: Halotydeus destructor resistant population (synthetic pyrethroid resistance); assay: Coated plastic vial bioassay, redlegged earth mite, resistant population; format: in vivo; conditions: 24 hours exposure; for LC50: Halotydeus destructor, 24 h
Procedure: (§1) The test compositions included 0.1% Tween 20 non-ionic surfactant to aid the spread of insecticides when coating plastic vials. This concentration of Tween 20 has been previously shown to have no toxic effect on H. destructor. For each insecticide concentration tested, 3, 10, 30, 100, 300, 1000, 3000 and 10000 mg a.i./L (ppm), approximately 10 mL of solution was poured into a 15 mL plastic vial and swirled to ensure a complete coating, with excess liquid removed. Eight vials were coated per concentration and were left to dry overnight. Control vials were treated in the same way but with water used in place of test composition.
(§2) Eight susceptible H. destructor mites were then placed into each vial along with a leaf of common vetch (Vicia sativa). The leaf was added to provide food and increase humidity. Vials were then sealed with a lid and placed at 18° C. After 4, 6, 8 and 24 hours of exposure, the mites were scored as alive (moving freely), incapacitated (inhibited movement), or dead (no movement over a 5 second period).
The resistant population of H. destructor was collected from a lucerne paddock in the Upper South-East district of South Australia, where resistance to synthetic pyrethroids was confirmed in late 2016.
(§3) The data produced in the assays were assessed for concentrations that caused 50, 90 and 99% mortality (lethal concentration, LC), together with 95% confidence intervals (CIs) and were estimated from observations of mortality after 24 hours exposure using a binomial logistic regression (Robertson & Preisler, 1992, Pesticide Bioassays with Arthropods. CRC: Boca Raton; Venables & Ripley, 2002, Modern Applied Statistics with S. Springer: New York). Population differences were tested by comparing the change in model deviance with and without the population factor (different regression intercepts for each population). Differences in regression slopes between populations were tested by comparing the change in model deviance with and without the population×dose interaction term. The resistance ratio of the insecticide-resistant population was estimated as the ratio of its LC50 to that of the susceptible population. All analyses were performed using R 3.3. (R Core Team 2017, R: A language and environment for statistical computing. R Foundation for Statistical Computing, Vienna, Austria. http://www.R-project.org).

[2] = system: Halotydeus destructor susceptible population; assay: Coated plastic vial bioassay, redlegged earth mite, susceptible population; format: in vivo; conditions: for LC50: Halotydeus destructor, read-out: LC50 (mg a.i./L)
Procedure: The efficacy of flavesone against H. destructor was assessed using the glass vial technique developed by Hoffmann et al. (1997, Exp. Appl. Acarol., 21:151-162), adapted for plastic vials. A susceptible population of mites was collected from capeweed (Arctotheca calendula) at a Victorian site (37° 40′33″S, 145° 07′ 45″E) that had no known history of insecticide application. Following collection, samples were stored in small plastic containers with leaf material and paper towel to absorb excess moisture. Containers were kept at 4° C. prior to testing.
as §1
as §2, with “period). […]” for “period).”
as §3

[3] = system: Rhyzopertha dominica strain QRD1440 (resistant to OP protectants and pyrethroids); assay: Grain protectant bioassay on treated wheat, resistant lesser grain borer; conditions: Example 5, QRD1440, replicates A, B, C; for F1 Progeny count No. dead/total: further 6 weeks
[4] = system: Rhipicephalus microplus larvae, susceptible non-resistant field strain (NRFS); assay: Larval packet test (LPT), cattle tick larvae, susceptible strain; format: in vivo; conditions: for LC50 (ppm) / LC99 (ppm): NRFS, 24 hours, Probit analysis; for mortality at 1250 ppm: 1,250 ppm
Procedure: The larval packet test (LPT) is a modification of that first described by Stone and Haydock (1962, Bull. Entomol. Res., 563-578, http://dx.doi.org/10.1017/5000748530004832X) for evaluation of field resistance in cattle tick (Rhipicephalus microplus) larvae.
The first LPT assay was conducted to identify the potential range of flavesone acaricidal activity against larvae of a susceptible non-resistant field strain (NRFS) of R. microplus as a reference strain using a wide range of concentrations (1 in 10 in series).
The test compound, flavesone, 6-isobutyryl-2,2,4,4-tetramethylcyclohexane-1,3,5-trione, 96.7%, was used. As its volatility/evaporative properties were unknown, the LPT method was modified to incorporate the use of suitably-sized polyethylene plastic sheets to envelop the larval packets, minimizing exposure of the test active to the atmosphere.
In addition, the use of the solvent trichloroethylene (TCE) was removed to avoid the time required for evaporation in the preparation of test papers. The test solutions were prepared in olive oil only at the diluent and the papers immediately enveloped in the plastic sheets and sealed with bulldog clips to minimize evaporation.
A stock solution with a concentration of 100,000 ppm (10%) flavesone was prepared in olive oil as the diluent (1.035 mL flavesone (96.7%) to 8.965 mL olive oil) and then further diluted 1 in 10 in series to also give 10,000 ppm, 1,000 ppm, 100 ppm, 10 ppm and 1 ppm concentration. The negative control was olive oil only. No positive control was included in this experiment. Due to the viscosity of the olive oil, all solutions were prepared using reverse pipetting technique.
(§4) Filter papers (75 mm×85 mm Whatman® No. 541), with grid patterns, were impregnated on ½ of the paper with 225 μL of each solution using a micro-pipette and immediately folded in half, enveloped in polyethylene plastic and sealed with 3 bulldog clips. The impregnated papers were kept at room temperature on aluminium trays for a minimum of 60 minutes to allow for dispersal across the grid pattern of the paper prior to aliquoting of larvae. The packets were prepared in duplicate for each concentration, including the negative control.
An 8 dram vial containing approximately 20,000 hatched 7-21 day old NRFS larvae (about 1 g eggs) was opened and set up on a moated tray with a small amount of detergenated water, about 15 to 30 minute before use. Only larvae that migrated to the top of the vial were used in the assay.
(§5) Aliquots of approximately 100 larvae were placed into each packet using plastic disposable forceps and the packets resealed and incubated and 27° C. and 85% relative humidity (RH).
(§6) After 24 hours, the larval packets were opened and the numbers of dead and live larvae were counted under a magnification lamp. Percentage mortality was calculated and, where applicable, corrected using Abbott's Formula (Abbott, 1925, J. Economic Entomology, 18:256-257): […]
(§7) LC50 and LC99 values were determined by Probit mortality vs log concentration analysis. Probit values were derived from “Transformation of Percentages to Probit's Tables” published by Fisher R. A. and Yates F. (1938).
(§8) The LPT Assay of Example 1 was repeated using a narrow range of concentrations, 1 in 2 series, of flavesone to determine LC50 and LC99 values against the susceptible NRFS and the multi-resistant Tiaro reference strain.
The stock solution of flavesone (100,000 ppm) was diluted 1 in 10 with olive oil (1 mL to 9 mL diluent) to give 10,000 ppm, which was then further diluted 1 in 2 in series (5 mL to 5 mL diluent) to give 5,000 ppm, 2,500 ppm, 1,250 ppm, 625 ppm, 312.5 ppm and 156.25 ppm concentrations. […]

[5] = system: Rhipicephalus microplus larvae, multi-resistant Tiaro reference strain; assay: Larval packet test (LPT), cattle tick larvae, multi-resistant strain; format: in vivo; conditions: Example 2, 24 hours
Procedure: as §4, §5, §6, §7, §8
The Tiaro strain of R. microplus comprises of about 30% fluazuron, 60.6% cypermethrin (SP), 57.6% flumethrin (SP), 16.2% amitraz (amidine), 11.3% DDT, 9.3% chlorpyrifos (OP) and 2.4% dieldrin resistance [2014 acaricide resistance profiling].
The stock solution of flavesone (100,000 ppm) was diluted 1 in 10 with olive oil (1 mL to 9 mL diluent) to give 10,000 ppm, which was then further diluted 1 in 2 in series (5 mL to 5 mL diluent) to give 5,000 ppm, 2,500 ppm, 1,250 ppm, 625 ppm, 312.5 ppm and 156.25 ppm concentrations.
For the preparation of the positive control, cypermethrin, a stock solution of a concentration of 10,000 ppm was prepared in 2:1 trichloroethylene (TCE)/olive oil as the solvent ([…] cypermethrin, 94.8% purity, to 10 mL solvent) and then further diluted 1 in 2 in series (5 mL to 5 mL solvent) to also give 5,000 ppm, 2,500 ppm, 1,250 ppm, 625 ppm, 312.5 ppm and 156.25 ppm.
The flavesone papers were prepared as in Example 1.
The cypermethrin papers were impregnated with 670 μL of each solution using a micro-pipette and hung on a rack in a fume-hood to allow papers to dry (evaporation of TCE) for a minimum of 60 minutes. The papers were then folded in half and sealed with three bulldog clips, placed on aluminium trays prior to aliquoting the larvae. All packets were prepared in duplicate.
A dose-response relationship was determined at 24 hours contact exposure.
Concentrations of 1,250 ppm, 625 ppm and 312.5 ppm flavesone concentrations prepared for Example 3 were used on the same day of preparation. Duplicate papers were prepared for both the NRFS and Tiaro strains (including negative controls) as described in Example 2.
Mortality was assessed at 48 hours and LC50 and LC99 values were determined by Probit mortality vs log concentration analysis.

[6] = system: Aedes aegypti PRS Puerto Rican strain (synthetic pyrethroid resistant) L3 larvae; assay: Mosquito larval dose response assay, PRS strain; conditions: read-out: Lethal Concentration (LC50) PRS Strain
[7] = system: Aedes aegypti Liverpool strain (insecticide susceptible, LVP) L3 larvae; assay: Mosquito larval dose response assay, LVP strain; conditions: read-out: Lethal Concentration (LC50) LVP Strain
[8] = Susceptible population, 24 hours exposure
[9] = Rhipicephalus microplus, 24 h, Example 2
[10] = Rhipicephalus microplus, 24 h, Example 3

Structure (SMILES): Cc1c(COC(=O)[C@@H]2[C@H](/C=C(\Cl)C(F)(F)F)C2(C)C)cccc1-c1ccccc1 (racemic) [Bifenthrin, bifenthrin]
- resistance ratio (LC50 of resistant population to that of susceptible population) [1]: about 3,500 times
- LC50 ([1]; Resistant population, read-out: LC50 (mg a.i./L)): 144 µg/mL (≈ 340 µM)
- LC90 (mg a.i./L) ([1]; Resistant population): 5.4 × 10^5 mg a.i./L
- LC99 (mg a.i./L) ([1]; Resistant population): 4.3 × 10^9 mg a.i./L
- LC50 [2, 8]: 0.04 µg/mL (≈ 0.0946 µM)
- LC90 (mg a.i./L) [2, 8]: 2.66 mg a.i./L
- LC99 (mg a.i./L) [2, 8]: 233.10 mg a.i./L

Structure (SMILES): CCOP(=S)(OCC)Oc1nc(Cl)c(Cl)cc1Cl [Chlorpyrifos, chlorpyrifos, reference compound]
- resistance ratio (LC50 of resistant population to that of susceptible population) [1]: 6.5 times
- LC50 ([1]; read-out: LC50 (mg a.i./L), Resistant population): 1.37 µg/mL (≈ 3.91 µM)
- LC90 (mg a.i./L) ([1]; Resistant population): 7.76 mg a.i./L
- LC99 (mg a.i./L) ([1]; Resistant population): 51.56 mg a.i./L
- LC50 ([2]; 24 h): 0.21 µg/mL (≈ 0.599 µM)
- LC90 (mg a.i./L) [2, 8]: 0.76 mg a.i./L
- LC99 (mg a.i./L) [2, 8]: 3.18 mg a.i./L
- F1 Progeny count No. dead/total ([3]; 5 ppm on wheat): 2/470 and 3/172 and 3/355
- 14 Day adult mortality No. dead (total) ([3]; 5 ppm on wheat): 0/50 (2×) and 1/50
- F1 Progeny count No. dead/total ([3]; 10 ppm on wheat): 1/350 and 0/317 and 2/232
- 14 Day adult mortality No. dead (total) ([3]; 10 ppm on wheat): 0/50

Structure (SMILES): CC1(C)C(C=C(Cl)Cl)C1C(=O)OC(C#N)c1cccc(Oc2ccccc2)c1 (centres unmarked) [Cypermethrin, cypermethrin, reference compound]
- LC50 (ppm) ([4]; Example 2): 128 ppm
- LC99 (ppm) ([4]; Example 2): 540 ppm
- LC50 (ppm) ([4]; Example 3): 112 ppm
- LC99 (ppm) ([4]; Example 3): 317 ppm
- mortality at 2.5 ppm ([4]; Rhipicephalus microplus, 24 h, Example 2, 2.500 ppm): 100%
- mortality at 156.25 ppm [4, 9]: 67.3%
- mortality at 312.5 ppm [4, 9]: 89%
- mortality at 625 ppm [4, 9]: 99.6%
- mortality at 1250 ppm [4, 9]: 100%
- mortality at 5000 ppm ([4]; Rhipicephalus microplus, 24 h, Example 2, 5,000 ppm): 100%
- mortality at 10000 ppm ([4]; Rhipicephalus microplus, 24 h, Example 2, 10,000 ppm): 100%
- mortality at 39.0625 ppm ([4]; Rhipicephalus microplus, 24 h, Example 3, 39.0625 ppm): 0%
- mortality at 78.125 ppm ([4]; Rhipicephalus microplus, 24 h, Example 3, 78.125 ppm): 20.6%
- mortality at 156.25 ppm [4, 10]: 79.6%
- mortality at 312.5 ppm [4, 10]: 99.2%
- mortality at 625 ppm [4, 10]: 100%
- mortality at 1250 ppm [4, 10]: 100%
- LC50 (ppm) ([5]; Tiaro, Probit analysis): 3082 ppm
- LC99 (ppm) ([5]; Tiaro, Probit analysis): >10,000 ppm
- mortality at 2.5 ppm ([5]; Rhipicephalus microplus, 2.500 ppm): 59.7%
- mortality at 156.25 ppm ([5]; Rhipicephalus microplus, 156.25 ppm): 0.56%
- mortality at 312.5 ppm ([5]; Rhipicephalus microplus, 312.5 ppm): 20.4%
- mortality at 625 ppm ([5]; Rhipicephalus microplus, 625 ppm): 21.9%
- mortality at 1250 ppm ([5]; Rhipicephalus microplus, 1,250 ppm): 20.9%
- mortality at 5000 ppm ([5]; Rhipicephalus microplus, 5,000 ppm): 62.2%
- mortality at 10000 ppm ([5]; Rhipicephalus microplus, 10,000 ppm): 66.8%

Structure (SMILES): CCOC(=O)CC(SP(=S)(OC)OC)C(=O)OCC (centres unmarked) [Malathion, malathion]
- LC50 ([6]; 24 h): 0.291 µg/mL (≈ 0.88 µM)
- LC50 ([6]; 48 h): 0.177 µg/mL (≈ 0.535 µM)
- LC50 ([6]; 72 h): 0.127 µg/mL (≈ 0.384 µM)
- LC50 ([7]; 24 h): 0.11 µg/mL (≈ 0.334 µM)
- LC50 ([7]; 48 h): 0.0389 µg/mL (≈ 0.118 µM)
- LC50 ([7]; 72 h): 0.0298 µg/mL (≈ 0.0901 µM)

From patent publication US11259522B2, “Control of resistant pests” (priority 2017, dated 2022)
